Results reported in patent publication US20120122079A1, “INFECTION DETECTION METHODS AND SYSTEMS AND RELATED COMPOUNDS AND COMPOSITIONS” (priority 2010, published 2012).

Tested on: viral neuraminidase
Format: biochemical, influenza
Conditions: pH 5.5

| Compound | whether the substrate was cleaved and odorant released (decrease of the substrate signal and appearance of the cleavage products signal) |
| --- | --- |
| CC(=O)NC1C(O)CC(OCC2(C)CC2CC2CC3CC3(C)C2(C)C)(C(=O)O)OC1CC(O)CO [javanol, Sodium ([(1R,2S)-1-methyl-2-[[(1R,3S,5S)-1,2,2-trimethyl-3-bicyclo[3.1.0]hexanyl]methyl]cyclopropyl]methyl-5-acetamido-3,5-dideoxy-α-D-glycero-D-galacto-2-nonulopyranoside)onate] | substrate is still present |
| Sodium (4-(4-hydroxy-3-methoxyphenyl)butan-2-one-5-acetamido-3,5-dideoxy-α-D-glycero-D-galacto-2-nonulopyranoside)onate [zingerone] | significant loss of peak |
